Data on 3 compounds can be found in patent publication US20090227648A1, “PYRAZOLE DERIVATIVES USEFUL FOR THE TREATMENT OF CANCER” (AstraZeneca AB, priority 2004, published 2009).

The target in this experiment is T1, human Trk A kinase (Homo sapiens, UniProt P04629).
T1 construct: HIS; made in house; host or cells: SF9 insect cells
T1 sequence (P04629 442-796): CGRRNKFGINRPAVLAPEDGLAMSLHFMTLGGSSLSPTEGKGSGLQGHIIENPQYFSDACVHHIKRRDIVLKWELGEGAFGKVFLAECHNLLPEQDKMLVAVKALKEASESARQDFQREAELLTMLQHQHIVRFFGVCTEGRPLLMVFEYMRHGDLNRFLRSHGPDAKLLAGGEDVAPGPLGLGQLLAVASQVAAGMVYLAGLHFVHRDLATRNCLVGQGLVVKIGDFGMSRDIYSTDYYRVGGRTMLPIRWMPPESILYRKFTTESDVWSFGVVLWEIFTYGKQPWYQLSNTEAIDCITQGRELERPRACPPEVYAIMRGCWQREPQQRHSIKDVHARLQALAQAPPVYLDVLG
In words: Trk A kinase Alphascreen assay. The class given is biochemical. The following applies: intracellular domain of HIS-tagged human Trk A (aa 442-796), 70 μM ATP, 20 minutes, room temperature; read-out: Trk A inhibitory activity IC50. As to the method: Trk A kinase activity was measured for its ability to phosphorylate synthetic tyrosine residues within a generic polypeptide substrate using an Amplified Luminescent Proximity Assay (Alphascreen) technology (PerkinEilmer, 549 Albany Street, Boston, Mass.).
To measure Trk A kinase activity, the intracellular domain of a HIS-tagged human Trk A kinase (amino acids 442-796 of Trk A, Swiss-Prot Primary Accession Number P04629) was expressed in SF9 cells and purified using standard nickel column chromatography. After incubation of the kinase with a biotinylated substrate and adenosine triphosphate (ATP) for 20 minutes at room temperature, the kinase reaction was stopped by the addition of 30 mM ethylenediaminetetraacetic acid (EDTA). The reaction was performed in 384 well microtitre plates and the reaction products were detected with the addition of strepavidin coated Donor Beads and phosphotyrosine-specific antibodies coated Acceptor Beads using the EnVision Multilabel Plate Reader after an overnight incubation at room temperature.
For `N#Cc1cc([N+](=O)[O-])c(Nc2cc(C3CC3)[nH]n2)cc1N[C@@H](CO)c1ccc(F)cc1` [Example 10, (R)-4-(5-Cyclopropyl-1H-pyrazol-3-ylamino)-2-(1-(4-fluorophenyl)-2-hydroxyethylamino)-5-nitrobenzonitrile], the IC50 was 859 nM.

Regarding `C[C@H](Nc1cc(Nc2cc(C3CC3)[nH]n2)c([N+](=O)[O-])cc1F)c1ccc(F)cc1` [Example 13, (S)—N^1-(5-Cyclopropyl-1H-pyrazol-3-yl)-4-fluoro-N^3-(1-(4-fluorophenyl)ethyl)-6-nitrobenzene-1,3-diamine], the IC50 came to 426 nM.

As for `C[C@H](Nc1cc(NCCO)c([N+](=O)[O-])c(Nc2cc(C3CC3)[nH]n2)c1)c1ccc(F)cc1` [Example 17, (S)-2-(3-(5-Cyclopropyl-1H-pyrazol-3-ylamino)-5-(1-(4-fluorophenyl)ethylamino)-2-nitrophenylamino)ethanol], the IC50 was determined as 1240 nM.
